We go through 19 compounds from ChEMBL document CHEMBL5357031, “Design and Synthesis of Cytotoxic Water-Soluble Rocaglaol Derivatives against HEL Cells by Inhibiting Fli-1” (J Nat Prod, 2024).

Converted amounts (≈) assume the structure as drawn. Some results are limits rather than exact numbers.

The subject of one data set is SW480. As to the kind of experiment: Cytotoxicity against human SW480 cells assessed as cell growth inhibition incubated for 72 hrs by MTT assay. It is filed as functional, cell-based. The following applies: Homo sapiens, SW480, 72 h. For orientation: Formazan colour is commonly taken as a measure of viable cells.
For data set [1], the system named is MDA-MB-231. The data set is described as follows: cells. The following applies: Homo sapiens, MDA-MB-231, 72 h.
Description: (§1) Cytotoxicity against human MDA-MB-231 cells assessed as cell growth inhibition incubated for 72 hrs by MTT assay
Another data set relates to HEL. As to the kind of experiment: Cytotoxicity against HEL cells assessed as cell growth inhibition incubated for 72 hrs by MTT assay. It counts as functional, cell-based, Homo sapiens.
Data set [2] deals with MDA-MB-231.
Description: as §1
The nature of data set [3]: Solubility of compound in PBS at pH 7.4 at 2 mg measured for 24 hrs by HPLC-UV analysis. It is filed as physicochemical.

Broadly, the IC50 is the point on the concentration scale where inhibition reaches its midpoint. Turning to `COc1cc(OC)c2c(c1)O[C@@]1(c3ccc(OCCCCCCCCN4CCN(C)CC4)cc3)[C@H](c3ccccc3)C[C@@H](O)[C@@]21O` (racemic), the half-maximal inhibitory concentration (IC50) with SW480 worked out at 0.69 µM; with MDA-MB-231 [1], 0.45 µM; with HEL (Homo sapiens, HEL, 72 h), 0.46 µM.
The corresponding values for `COc1cc(OC)c2c(c1)O[C@@]1(c3ccc(OCCCCCCCCN(C)C)cc3)[C@H](c3ccccc3)C[C@@H](O)[C@@]21O` (racemic) are over 1 µM, 0.21 µM and 0.22 µM.
With `COc1cc(OC)c2c(c1)O[C@@]1(c3ccc(O)c(CN(C)C)c3)[C@H](c3ccccc3)C[C@@H](O)[C@@]21O` (racemic), the IC50 with SW480 was over 1 µM; with MDA-MB-231 [1], over 1 µM; with HEL (Homo sapiens, HEL, 72 h), over 1 µM.
As for `COc1cc(OC)c2c(c1)O[C@@]1(c3ccc(OCCCCCN4CCCCC4)cc3)[C@H](c3ccccc3)C[C@@H](O)[C@@]21O` (racemic), the IC50 with SW480 was over 1 µM; with MDA-MB-231 [1], 0.19 µM; with HEL (Homo sapiens, HEL, 72 h) it was 0.18 µM.
For orientation: solubility means the dissolved amount per volume that the medium holds. Regarding `COc1cc(OC)c2c(c1)O[C@@]1(c3ccc(OCCCCCN4CCN(C)CC4)cc3)[C@H](c3ccccc3)C[C@@H](O)[C@@]21O` (racemic; form 1), the results for the half-maximal inhibitory concentration (IC50) in the data set with MDA-MB-231 [2], in the data set with SW480 and with HEL (hel) were 0.11 µM, 0.55 µM and 0.23 µM, respectively. The solubility at 24 h in data set [3] was 8900 µg/mL (≈ 15.1 mM).
As for `COc1cc(OC)c2c(c1)O[C@@]1(c3ccc(OC)c(CN4CCCCC4)c3)[C@H](c3ccccc3)C[C@@H](O)[C@@]21O` (racemic), the IC50 with SW480 is over 1 µM; with MDA-MB-231 [1], over 1 µM; in the data set with HEL (Homo sapiens, HEL, 72 h), 0.57 µM.
In the case of `CCN(CC)Cc1cc([C@@]23Oc4cc(OC)cc(OC)c4[C@]2(O)[C@H](O)C[C@H]3c2ccccc2)ccc1OC` (racemic), the half-maximal inhibitory concentration (IC50) in the data set on SW480 is 0.43 µM; in the data set with MDA-MB-231 [1], over 1 µM; with HEL (Homo sapiens, HEL, 72 h), 0.12 µM.
Regarding `CCCCN(CCCC)Cc1cc([C@@]23Oc4cc(OC)cc(OC)c4[C@]2(O)[C@H](O)C[C@H]3c2ccccc2)ccc1O` (racemic), the concentration for half-maximal inhibition (IC50) in the data set on SW480 was over 1 µM; in the data set on MDA-MB-231 [1], over 1 µM; in the data set on HEL (Homo sapiens, HEL, 72 h) it was over 1 µM.
Consider `COc1cc(OC)c2c(c1)O[C@@]1(c3ccc(OCCCCN(C)C)cc3)[C@H](c3ccccc3)C[C@@H](O)[C@@]21O` (racemic), for which the concentration for half-maximal inhibition (IC50) in the data set with SW480 was over 1 µM; with MDA-MB-231 [1] it was 0.58 µM; in the data set on HEL (Homo sapiens, HEL, 72 h), over 1 µM.
Regarding `COc1cc(OC)c2c(c1)O[C@@]1(c3ccc(OCCCCCCCCN4CCCCC4)cc3)[C@H](c3ccccc3)C[C@@H](O)[C@@]21O` (racemic), the IC50 in the data set with SW480 was over 1 µM; with MDA-MB-231 [1], over 1 µM; in the data set on HEL (Homo sapiens, HEL, 72 h) it was 0.24 µM.
With `CCN(CC)Cc1cc([C@@]23Oc4cc(OC)cc(OC)c4[C@]2(O)[C@H](O)C[C@H]3c2ccccc2)ccc1O` (racemic), the IC50 in the data set with SW480 was over 1 µM; with MDA-MB-231 [1], over 1 µM; in the data set with HEL (Homo sapiens, HEL, 72 h), over 1 µM.
Turning to `COc1cc(OC)c2c(c1)O[C@@]1(c3ccc(OC)c(CN4CCCC4)c3)[C@H](c3ccccc3)C[C@@H](O)[C@@]21O` (racemic), the half-maximal inhibitory concentration (IC50) in the data set with SW480 was over 1 µM; in the data set on MDA-MB-231 [1] it was over 1 µM; in the data set on HEL (Homo sapiens, HEL, 72 h), 0.67 µM.
As to `COc1cc(OC)c2c(c1)O[C@@]1(c3ccc(O)c(CN4CCCC4)c3)[C@H](c3ccccc3)C[C@@H](O)[C@@]21O` (racemic), the IC50 in the data set with SW480 is over 1 µM; with MDA-MB-231 [1], over 1 µM; in the data set on HEL (Homo sapiens, HEL, 72 h) it was over 1 µM.
Regarding `COc1cc(OC)c2c(c1)O[C@@]1(c3ccc(OCCCCCN4CCN(C)CC4)cc3)[C@H](c3ccccc3)C[C@@H](O)[C@@]21O` (stereo in doubt; (-)-18o), the IC50 with HEL (hel) is 0.12 µM.
For the compound `COc1cc(OC)c2c(c1)O[C@@]1(c3ccc(O)c(CN4CCOCC4)c3)[C@H](c3ccccc3)C[C@@H](O)[C@@]21O` (racemic), the IC50 in the data set with SW480 was over 1 µM; with MDA-MB-231 [1], over 1 µM; in the data set on HEL (Homo sapiens, HEL, 72 h), 0.49 µM.
`CCN(CC)CCCCOc1ccc([C@@]23Oc4cc(OC)cc(OC)c4[C@]2(O)[C@H](O)C[C@H]3c2ccccc2)cc1` (racemic): the concentration for half-maximal inhibition (IC50) is over 1 µM in the data set with SW480; 0.55 µM in the data set with MDA-MB-231 [1]; over 1 µM in the data set on HEL (Homo sapiens, HEL, 72 h).
As for `COc1cc(OC)c2c(c1)O[C@@]1(c3ccc(O)cc3)[C@H](c3ccccc3)C[C@@H](O)[C@@]21O` (racemic), the half-maximal inhibitory concentration (IC50) in the data set with SW480 was over 1 µM; with MDA-MB-231 [1] it was 0.35 µM; in the data set with HEL (Homo sapiens, HEL, 72 h), 0.18 µM. In data set [3], the concentration in solution (solubility at 24 h) came to 50 µg/mL (≈ 0.119 mM).
As to `COc1cc(OC)c2c(c1)O[C@@]1(c3ccc(OCCn4cnc5ccccc54)cc3)[C@H](c3ccccc3)C[C@@H](O)[C@@]21O` (racemic), the half-inhibitory concentration (IC50) is over 1 µM in the data set with SW480; over 1 µM in the data set with MDA-MB-231 [1]; over 1 µM in the data set on HEL (Homo sapiens, HEL, 72 h).
With `COc1cc(OC)c2c(c1)O[C@@]1(c3ccc(OCCCCN4CCN(C)CC4)cc3)[C@H](c3ccccc3)C[C@@H](O)[C@@]21O` (racemic), the half-maximal inhibitory concentration (IC50) in the data set on SW480 came to 0.65 µM; in the data set with MDA-MB-231 [1], 0.22 µM; with HEL (Homo sapiens, HEL, 72 h) it was 0.38 µM.
